ChEMBL document CHEMBL5212743, “Selectivity Literature for EUbOPEN Chemogenomics Library wave 3” (2023)
Values belong to the compound of their own block, whether it stands above or below them.

Columns and labels:
[1] = biological target: T1, Mitogen-activated protein kinase kinase kinase 13 (Homo sapiens) (UniProt O43283); experiment: Selectivity interaction (KinomeScan (DiscoverX)) EUB0000348aPTSA MAP3K13; conditions: at 1 µM
T1 sequence (whole entry): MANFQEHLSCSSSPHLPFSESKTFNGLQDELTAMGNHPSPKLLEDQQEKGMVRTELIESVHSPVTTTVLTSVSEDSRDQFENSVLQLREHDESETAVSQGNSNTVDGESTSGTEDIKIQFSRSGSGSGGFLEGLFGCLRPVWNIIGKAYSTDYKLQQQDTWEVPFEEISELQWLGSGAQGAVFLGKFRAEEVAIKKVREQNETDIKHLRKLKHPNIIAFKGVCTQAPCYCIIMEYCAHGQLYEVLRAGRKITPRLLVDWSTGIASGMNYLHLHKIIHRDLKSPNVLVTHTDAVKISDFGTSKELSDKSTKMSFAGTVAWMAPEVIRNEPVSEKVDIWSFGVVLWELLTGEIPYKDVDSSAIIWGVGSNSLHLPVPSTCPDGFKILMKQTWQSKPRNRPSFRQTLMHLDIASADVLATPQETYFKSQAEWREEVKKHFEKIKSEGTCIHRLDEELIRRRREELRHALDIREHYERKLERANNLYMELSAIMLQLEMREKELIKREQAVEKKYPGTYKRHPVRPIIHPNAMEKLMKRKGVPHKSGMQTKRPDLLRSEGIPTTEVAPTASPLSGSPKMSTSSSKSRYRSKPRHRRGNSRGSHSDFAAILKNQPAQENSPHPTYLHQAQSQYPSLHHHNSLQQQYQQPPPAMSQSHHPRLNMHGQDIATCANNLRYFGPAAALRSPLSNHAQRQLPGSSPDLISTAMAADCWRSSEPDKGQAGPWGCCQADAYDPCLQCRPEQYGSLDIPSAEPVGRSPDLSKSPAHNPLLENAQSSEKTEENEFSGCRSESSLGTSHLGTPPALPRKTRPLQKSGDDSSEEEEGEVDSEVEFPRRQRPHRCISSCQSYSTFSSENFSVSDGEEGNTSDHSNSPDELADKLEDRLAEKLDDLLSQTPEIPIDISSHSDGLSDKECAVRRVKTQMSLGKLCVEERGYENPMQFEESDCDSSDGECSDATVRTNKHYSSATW

[2] = biological target: Dual specificity protein kinase CLK4 (Homo sapiens) (UniProt Q9HAZ1); experiment: Selectivity interaction (KinomeScan (DiscoverX)) EUB0000348aPTSA CLK4; conditions: at 1 µM
Histamine H1 receptor [3] = biological target: T2, Histamine H1 receptor (Homo sapiens, UniProt P35367); experiment: (§1) Selectivity interaction (GPCR panel (PDSP screen)) EUB0000348aPTSA HRH1; conditions: at 10 µM
Histamine H1 receptor [4] = biological target: T2, Histamine H1 receptor; experiment: as §1
[5] = biological target: Cyclin-dependent kinase 5 (Homo sapiens) (UniProt Q00535); experiment: Selectivity interaction (KinomeScan (DiscoverX)) EUB0000348aPTSA CDK5; conditions: at 1 µM
[6] = biological target: Endothelin receptor type B (Homo sapiens) (UniProt P24530); conditions: at 10 µM
[7] = biological target: Delta-type opioid receptor (Homo sapiens) (UniProt P41143); experiment: Selectivity interaction (CEREP panel (Eurofins, receptors, ion channels, and other enzymes)) EUB0000348aPTSA OPRD1; conditions: at 10 µM
[8] = biological target: Lysosomal Pro-X carboxypeptidase (Homo sapiens) (UniProt P42785); experiment: Selectivity interaction (CEREP panel (Eurofins, panel of ion channels, receptors, GPCRs, and enzymes (ligand binding assay))) EUB0000289c PRCP; conditions: at 3 µM
Histamine H1 receptor [9] = biological target: T2, Histamine H1 receptor; experiment: Selectivity interaction (GPCR panel (PDSP screen)) EUB0000289c HRH1
[10] = biological target: T3, G protein-coupled receptor kinase 3 (Homo sapiens) (UniProt P35626); experiment: Selectivity interaction (KinomeScan (DiscoverX)) EUB0000289c ADRBK2; conditions: at 1 µM
T3 sequence (whole entry): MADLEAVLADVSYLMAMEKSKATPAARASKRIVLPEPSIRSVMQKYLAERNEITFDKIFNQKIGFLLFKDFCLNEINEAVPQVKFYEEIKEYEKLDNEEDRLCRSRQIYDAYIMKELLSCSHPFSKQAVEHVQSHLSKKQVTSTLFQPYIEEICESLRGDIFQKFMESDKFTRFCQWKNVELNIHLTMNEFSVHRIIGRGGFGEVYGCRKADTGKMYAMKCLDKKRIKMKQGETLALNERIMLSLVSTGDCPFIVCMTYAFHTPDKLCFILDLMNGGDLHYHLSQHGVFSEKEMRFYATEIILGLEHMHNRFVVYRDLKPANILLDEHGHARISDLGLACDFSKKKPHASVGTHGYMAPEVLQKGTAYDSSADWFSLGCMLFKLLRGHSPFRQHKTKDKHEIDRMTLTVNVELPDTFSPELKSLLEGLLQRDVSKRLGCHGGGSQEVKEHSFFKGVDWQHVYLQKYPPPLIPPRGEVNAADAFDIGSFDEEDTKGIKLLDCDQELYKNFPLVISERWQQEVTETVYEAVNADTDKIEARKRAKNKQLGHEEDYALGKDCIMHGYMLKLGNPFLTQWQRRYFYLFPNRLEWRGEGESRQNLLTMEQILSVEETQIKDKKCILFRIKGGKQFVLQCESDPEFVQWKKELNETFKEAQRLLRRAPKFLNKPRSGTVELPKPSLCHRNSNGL

[11] = biological target: Serine/threonine-protein kinase BRSK2 (Homo sapiens, UniProt Q8IWQ3); experiment: Selectivity interaction (KinomeScan (DiscoverX, competition-binding assay)) EUB0000289c BRSK2
[12] = biological target: Ephrin type-A receptor 1 (Homo sapiens) (UniProt P21709); experiment: Selectivity interaction (KinomeScan (DiscoverX)) EUB0000289c EPHA1; conditions: at 1 µM
[13] = biological target: Serine/threonine-protein kinase BRSK2 (Homo sapiens) (UniProt Q8IWQ3); experiment: Selectivity interaction (KinomeScan (DiscoverX)) EUB0000289c BRSK2; conditions: at 1 µM
[14] = biological target: T4, Serine/threonine-protein kinase Nek7 (Homo sapiens, UniProt Q8TDX7); experiment: Selectivity interaction (KinomeScan (DiscoverX)) EUB0000289c NEK7; conditions: at 1 µM
Target sequence in this assay (Q8TDX7 whole entry, looked up): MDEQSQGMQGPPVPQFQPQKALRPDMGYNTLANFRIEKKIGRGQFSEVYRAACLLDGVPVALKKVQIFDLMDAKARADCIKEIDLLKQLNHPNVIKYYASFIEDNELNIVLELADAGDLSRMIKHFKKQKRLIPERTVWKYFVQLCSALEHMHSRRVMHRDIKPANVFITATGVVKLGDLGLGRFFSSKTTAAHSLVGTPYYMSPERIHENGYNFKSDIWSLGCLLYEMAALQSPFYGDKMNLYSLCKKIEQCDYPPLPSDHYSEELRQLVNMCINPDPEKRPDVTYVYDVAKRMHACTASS

Ephrin type-A receptor 1 = Ephrin type-A receptor 1 (Homo sapiens, UniProt P21709); experiment: Selectivity interaction (KinomeScan (DiscoverX, competition-binding assay)) EUB0000289c EPHA1
[15] = biological target: G protein-coupled receptor kinase 3 (Homo sapiens, UniProt P35626); experiment: Selectivity interaction (KinomeScan (DiscoverX, competition-binding assay)) EUB0000289c ADRBK2
[16] = biological target: T4, Serine/threonine-protein kinase Nek7; experiment: Selectivity interaction (KinomeScan (DiscoverX, competition-binding assay)) EUB0000289c NEK7
[17] = biological target: T1, Mitogen-activated protein kinase kinase kinase 13 (Homo sapiens); experiment: Selectivity interaction (KinomeScan (DiscoverX)) EUB0000547a MAP3K13; conditions: at 1 µM
[18] = biological target: T5, Gamma-aminobutyric acid receptor subunit alpha-1 (Homo sapiens, UniProt P14867); experiment: Selectivity interaction (GPCR panel (PDSP screen)) EUB0000547a GABRA1
T5 sequence (P14867 whole entry): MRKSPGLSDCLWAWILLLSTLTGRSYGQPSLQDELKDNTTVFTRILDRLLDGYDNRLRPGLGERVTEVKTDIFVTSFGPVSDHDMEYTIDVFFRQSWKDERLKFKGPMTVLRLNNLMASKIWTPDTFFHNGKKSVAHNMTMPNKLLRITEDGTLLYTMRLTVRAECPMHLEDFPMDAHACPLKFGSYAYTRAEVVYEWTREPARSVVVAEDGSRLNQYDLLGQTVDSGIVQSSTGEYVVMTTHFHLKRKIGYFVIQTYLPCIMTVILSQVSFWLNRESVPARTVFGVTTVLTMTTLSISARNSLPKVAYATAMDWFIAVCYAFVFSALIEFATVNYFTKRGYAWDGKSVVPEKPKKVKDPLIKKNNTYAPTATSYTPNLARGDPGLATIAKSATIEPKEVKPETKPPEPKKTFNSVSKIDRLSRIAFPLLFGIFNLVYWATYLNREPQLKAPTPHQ

[19] = biological target: Tyrosine-protein kinase ZAP-70 (Homo sapiens) (UniProt P43403); experiment: Selectivity interaction (KinomeScan (DiscoverX)) EUB0000547a ZAP70; conditions: at 1 µM
[20] = biological target: Alpha-2B adrenergic receptor (Homo sapiens, UniProt P18089); experiment: Selectivity interaction (GPCR panel (PDSP screen)) EUB0000309b ADRA2B
[21] = biological target: T6, Sigma non-opioid intracellular receptor 1 (Homo sapiens, UniProt Q99720); experiment: Selectivity interaction (GPCR panel (PDSP screen)) EUB0000289bCl SIGMAR1
[22] = biological target: Tyrosine-protein kinase Lck (Homo sapiens, UniProt P06239); experiment: Selectivity interaction (Z’-LYTE assay) EUB0000638a LCK
[23] = biological target: Tyrosine-protein kinase Lyn (Homo sapiens, UniProt P07948); experiment: Selectivity interaction (Z’-LYTE assay) EUB0000638a LYN
[24] = biological target: Tyrosine-protein kinase Yes (Homo sapiens, UniProt P07947); experiment: Selectivity interaction (Z’-LYTE assay) EUB0000638a YES1
[25] = biological target: Tyrosine-protein kinase Tec (Homo sapiens) (UniProt P42680); conditions: at 1 µM
[26] = biological target: Receptor tyrosine-protein kinase erbB-2 (Homo sapiens) (UniProt P04626); experiment: Selectivity interaction (KinomeScan (DiscoverX)) EUB0000638a ERBB2; conditions: at 1 µM
[27] = biological target: Proto-oncogene tyrosine-protein kinase Src (Homo sapiens, UniProt P12931); experiment: Selectivity interaction (Z’-LYTE assay) EUB0000638a SRC
[28] = biological target: Tyrosine-protein kinase Fyn (Homo sapiens, UniProt P06241); experiment: Selectivity interaction (Z’-LYTE assay) EUB0000638a FYN
[29] = biological target: Tyrosine-protein kinase Fgr (Homo sapiens, UniProt P09769); experiment: Selectivity interaction (Z’-LYTE assay) EUB0000638a FGR
[30] = biological target: Receptor tyrosine-protein kinase erbB-4 (Homo sapiens) (UniProt Q15303); experiment: Selectivity interaction (KinomeScan (DiscoverX)) EUB0000638a ERBB4; conditions: at 1 µM
[31] = biological target: Tyrosine-protein kinase Blk (Homo sapiens, UniProt P51451); experiment: Selectivity interaction (Z’-LYTE assay) EUB0000638a BLK
[32] = biological target: Tyrosine-protein kinase HCK (Homo sapiens, UniProt P08631); experiment: Selectivity interaction (Z’-LYTE assay) EUB0000638a HCK
[33] = biological target: T6, Sigma non-opioid intracellular receptor 1; experiment: Selectivity interaction (GPCR panel (PDSP screen)) EUB0000748a SIGMAR1
[34] = biological target: 5-hydroxytryptamine receptor 2B (Homo sapiens, UniProt P41595); experiment: Selectivity interaction (GPCR panel (PDSP screen)) EUB0000748a HTR2B

T2 sequence (P35367 whole entry): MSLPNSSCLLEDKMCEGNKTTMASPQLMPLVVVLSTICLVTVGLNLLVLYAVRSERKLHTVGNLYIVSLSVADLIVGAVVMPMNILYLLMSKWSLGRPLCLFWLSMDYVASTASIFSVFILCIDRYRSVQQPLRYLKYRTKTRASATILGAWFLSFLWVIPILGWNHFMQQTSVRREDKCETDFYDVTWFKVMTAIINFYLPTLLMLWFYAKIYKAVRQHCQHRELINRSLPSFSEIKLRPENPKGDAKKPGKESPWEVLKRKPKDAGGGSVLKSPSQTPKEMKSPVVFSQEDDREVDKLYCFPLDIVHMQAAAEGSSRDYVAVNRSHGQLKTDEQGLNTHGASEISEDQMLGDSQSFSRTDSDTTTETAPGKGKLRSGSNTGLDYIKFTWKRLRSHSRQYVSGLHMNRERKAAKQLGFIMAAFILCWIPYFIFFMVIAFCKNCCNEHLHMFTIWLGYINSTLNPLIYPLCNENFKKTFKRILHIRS
T6 sequence (Q99720 whole entry): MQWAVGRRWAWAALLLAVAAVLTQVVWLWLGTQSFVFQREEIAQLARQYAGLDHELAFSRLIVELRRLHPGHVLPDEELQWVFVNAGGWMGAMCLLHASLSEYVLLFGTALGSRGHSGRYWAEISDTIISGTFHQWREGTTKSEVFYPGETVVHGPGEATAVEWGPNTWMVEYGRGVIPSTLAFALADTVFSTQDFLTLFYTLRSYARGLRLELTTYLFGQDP
Receptor tyrosine-protein kinase erbB-2 (Homo sapiens), sequence (P04626 whole entry): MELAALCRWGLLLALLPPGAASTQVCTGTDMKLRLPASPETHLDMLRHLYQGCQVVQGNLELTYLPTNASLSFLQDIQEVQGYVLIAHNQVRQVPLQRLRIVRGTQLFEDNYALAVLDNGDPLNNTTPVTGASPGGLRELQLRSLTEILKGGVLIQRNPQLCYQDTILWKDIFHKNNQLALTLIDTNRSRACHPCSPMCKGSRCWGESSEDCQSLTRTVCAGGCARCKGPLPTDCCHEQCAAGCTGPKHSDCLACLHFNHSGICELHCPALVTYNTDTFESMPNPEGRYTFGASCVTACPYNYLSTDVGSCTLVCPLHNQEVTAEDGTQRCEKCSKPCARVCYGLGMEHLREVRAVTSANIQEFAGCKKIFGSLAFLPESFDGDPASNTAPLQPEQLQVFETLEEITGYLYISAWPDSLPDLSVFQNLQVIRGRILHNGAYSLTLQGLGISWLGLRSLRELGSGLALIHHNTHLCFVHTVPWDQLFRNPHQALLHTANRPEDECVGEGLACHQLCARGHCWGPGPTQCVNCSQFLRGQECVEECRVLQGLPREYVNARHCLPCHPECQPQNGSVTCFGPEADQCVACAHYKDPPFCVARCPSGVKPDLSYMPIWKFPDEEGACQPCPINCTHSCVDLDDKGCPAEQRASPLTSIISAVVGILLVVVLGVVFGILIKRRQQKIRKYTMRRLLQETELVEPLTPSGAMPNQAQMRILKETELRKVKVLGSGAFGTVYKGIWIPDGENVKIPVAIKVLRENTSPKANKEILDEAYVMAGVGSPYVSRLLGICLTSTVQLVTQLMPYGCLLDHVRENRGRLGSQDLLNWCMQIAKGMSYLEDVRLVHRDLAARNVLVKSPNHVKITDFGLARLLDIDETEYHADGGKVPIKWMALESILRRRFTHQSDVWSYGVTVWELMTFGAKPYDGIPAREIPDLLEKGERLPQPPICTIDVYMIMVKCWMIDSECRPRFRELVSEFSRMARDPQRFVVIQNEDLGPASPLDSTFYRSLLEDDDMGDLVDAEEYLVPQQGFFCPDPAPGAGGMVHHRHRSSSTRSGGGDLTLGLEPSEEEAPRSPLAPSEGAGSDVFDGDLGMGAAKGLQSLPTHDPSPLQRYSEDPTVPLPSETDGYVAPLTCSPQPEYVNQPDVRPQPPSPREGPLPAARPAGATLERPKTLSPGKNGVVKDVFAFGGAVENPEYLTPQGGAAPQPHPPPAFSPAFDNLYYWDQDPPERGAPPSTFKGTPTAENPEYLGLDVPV
Receptor tyrosine-protein kinase erbB-4 (Homo sapiens), sequence (Q15303 whole entry): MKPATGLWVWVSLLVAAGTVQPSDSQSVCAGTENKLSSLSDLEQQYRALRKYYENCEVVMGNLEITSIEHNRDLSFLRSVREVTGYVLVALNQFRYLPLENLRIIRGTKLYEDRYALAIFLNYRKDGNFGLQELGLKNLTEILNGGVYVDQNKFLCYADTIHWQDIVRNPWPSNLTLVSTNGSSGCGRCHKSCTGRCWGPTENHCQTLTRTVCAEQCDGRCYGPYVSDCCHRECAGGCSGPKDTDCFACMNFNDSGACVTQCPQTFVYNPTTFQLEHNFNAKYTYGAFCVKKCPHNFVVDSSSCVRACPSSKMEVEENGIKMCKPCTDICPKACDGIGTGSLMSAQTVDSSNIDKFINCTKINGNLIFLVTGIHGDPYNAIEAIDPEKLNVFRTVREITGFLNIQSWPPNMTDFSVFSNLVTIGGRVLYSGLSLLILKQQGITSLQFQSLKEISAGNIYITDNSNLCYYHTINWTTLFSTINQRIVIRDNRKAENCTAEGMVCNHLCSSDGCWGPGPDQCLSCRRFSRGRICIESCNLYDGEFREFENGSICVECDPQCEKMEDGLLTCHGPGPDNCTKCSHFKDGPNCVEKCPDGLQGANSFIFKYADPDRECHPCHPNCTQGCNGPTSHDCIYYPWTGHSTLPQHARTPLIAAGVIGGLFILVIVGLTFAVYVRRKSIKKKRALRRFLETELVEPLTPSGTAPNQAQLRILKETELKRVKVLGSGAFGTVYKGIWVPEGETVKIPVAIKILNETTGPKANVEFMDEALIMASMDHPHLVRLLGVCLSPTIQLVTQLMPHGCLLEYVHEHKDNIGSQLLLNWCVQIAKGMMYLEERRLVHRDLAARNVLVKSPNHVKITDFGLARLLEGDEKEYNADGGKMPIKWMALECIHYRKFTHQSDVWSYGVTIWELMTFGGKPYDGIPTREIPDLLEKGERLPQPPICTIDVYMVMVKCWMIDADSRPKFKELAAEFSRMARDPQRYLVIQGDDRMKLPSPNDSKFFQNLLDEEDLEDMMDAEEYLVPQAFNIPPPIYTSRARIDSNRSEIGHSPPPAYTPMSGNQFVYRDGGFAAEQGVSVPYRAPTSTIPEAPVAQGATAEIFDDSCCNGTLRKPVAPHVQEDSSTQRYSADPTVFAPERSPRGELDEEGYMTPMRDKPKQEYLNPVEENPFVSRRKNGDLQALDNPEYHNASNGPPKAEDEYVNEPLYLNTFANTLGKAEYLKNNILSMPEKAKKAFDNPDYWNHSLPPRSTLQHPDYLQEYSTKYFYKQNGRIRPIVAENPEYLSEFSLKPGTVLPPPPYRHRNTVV
Tyrosine-protein kinase ZAP-70 (Homo sapiens), sequence (P43403 whole entry): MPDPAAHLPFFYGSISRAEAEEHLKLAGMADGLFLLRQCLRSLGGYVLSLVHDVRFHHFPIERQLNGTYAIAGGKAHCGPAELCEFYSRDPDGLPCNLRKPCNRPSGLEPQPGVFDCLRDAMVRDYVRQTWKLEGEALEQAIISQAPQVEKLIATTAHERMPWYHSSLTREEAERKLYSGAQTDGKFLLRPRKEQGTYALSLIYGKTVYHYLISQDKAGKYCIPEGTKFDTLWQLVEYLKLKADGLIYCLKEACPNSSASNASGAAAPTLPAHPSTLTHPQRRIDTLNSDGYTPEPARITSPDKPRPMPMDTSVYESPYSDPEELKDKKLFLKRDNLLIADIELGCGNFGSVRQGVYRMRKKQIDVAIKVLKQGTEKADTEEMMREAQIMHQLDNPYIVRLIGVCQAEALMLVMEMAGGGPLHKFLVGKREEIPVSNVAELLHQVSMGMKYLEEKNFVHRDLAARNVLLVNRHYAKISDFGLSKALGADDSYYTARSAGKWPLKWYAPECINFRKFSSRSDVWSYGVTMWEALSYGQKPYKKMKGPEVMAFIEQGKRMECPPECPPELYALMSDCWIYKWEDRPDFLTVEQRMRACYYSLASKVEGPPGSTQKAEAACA
Tyrosine-protein kinase HCK, sequence (P08631 whole entry): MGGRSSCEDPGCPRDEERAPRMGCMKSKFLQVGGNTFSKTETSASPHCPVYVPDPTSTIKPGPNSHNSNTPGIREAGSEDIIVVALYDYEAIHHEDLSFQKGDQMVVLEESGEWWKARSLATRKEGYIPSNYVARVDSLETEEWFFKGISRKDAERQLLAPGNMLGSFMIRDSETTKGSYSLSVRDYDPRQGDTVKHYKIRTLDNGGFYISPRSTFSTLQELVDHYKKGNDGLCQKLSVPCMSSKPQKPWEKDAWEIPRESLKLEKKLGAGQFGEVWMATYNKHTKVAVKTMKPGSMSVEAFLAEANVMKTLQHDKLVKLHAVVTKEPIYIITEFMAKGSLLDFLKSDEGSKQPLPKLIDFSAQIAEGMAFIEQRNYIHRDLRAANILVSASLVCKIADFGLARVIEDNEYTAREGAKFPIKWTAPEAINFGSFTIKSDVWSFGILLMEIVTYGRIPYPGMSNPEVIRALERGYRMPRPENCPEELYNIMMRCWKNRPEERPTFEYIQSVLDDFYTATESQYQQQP
Cyclin-dependent kinase 5 (Homo sapiens), sequence (Q00535 whole entry, looked up): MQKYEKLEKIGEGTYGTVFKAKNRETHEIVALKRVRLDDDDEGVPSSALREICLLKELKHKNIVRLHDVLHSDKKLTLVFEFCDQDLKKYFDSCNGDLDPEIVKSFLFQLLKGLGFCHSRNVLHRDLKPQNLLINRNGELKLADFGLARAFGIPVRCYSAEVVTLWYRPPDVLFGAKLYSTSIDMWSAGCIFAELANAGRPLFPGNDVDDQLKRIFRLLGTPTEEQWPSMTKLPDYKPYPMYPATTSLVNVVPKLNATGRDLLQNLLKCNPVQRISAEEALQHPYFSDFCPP

Compound: CCCCN(CCCC)C(=O)CN1C[C@H](c2cc(OC)c3c(c2)OCO3)[C@@H](C(=O)O)[C@@H]1CC(C)(C)CCC
% of control [1]: 0%
% of control [2]: 0%
% of inhibition (Histamine H1 receptor [3]): 54%
Ki (Histamine H1 receptor [4]): > 10 µM
% of control [5]: 0%
% of inhibition [6]: 56%
% of inhibition [7]: 62%

Compound: Cn1cncc1[C@](O)(COc1ccc(C#N)cc1-c1ccc(OC(F)(F)F)cc1)c1ccc(C#N)cc1 [ABT-100]
% of inhibition [8]: 97%
Ki (Histamine H1 receptor [9]): > 10 µM
% of control [10]: 48%
Kd [11]: > 10 µM
% of control [12]: 38%
% of control [13]: 48%
% of control [14]: 46%
Kd (Ephrin type-A receptor 1): > 10 µM
Kd [15]: > 10 µM
Kd [16]: > 10 µM

Compound: NS(=O)(=O)c1cc(NC(=O)Cc2ccccc2)ccc1Oc1cccc(Cl)c1 [BAY-1797]
Ki [20]: 4.58 µM

Next, values leading:

% of control [17]: 23%
Ki [18]: 3.69 µM
% of control [19]: 38%
Compound: CCC(=N\O)/C(C)=C/c1ccc(F)c(C)c1 [A-226]

Ki [21]: 0.289 µM
Compound: CCCCN(CCCC)C(=O)CN1C[C@@H](c2cc(OC)c3c(c2)OCO3)[C@H](C(=O)O)[C@H]1CC(C)(C)CCC

IC50 [22]: > 10 µM
IC50 [23]: > 10 µM
IC50 [24]: > 10 µM
% of control [25]: 6.4%
% of control [26]: 2.1%
IC50 [27]: > 10 µM
IC50 [28]: > 10 µM
IC50 [29]: > 10 µM
% of control [30]: 4.3%
IC50 [31]: > 10 µM
IC50 [32]: > 10 µM
Compound: CC#CC(=O)N1CCC[C@H]1c1nc(-c2ccc(C(=O)Nc3ccccn3)cc2)c2c(N)nccn12 [ACALABRUTINIB]

Ki [33]: 1.27 µM
Ki [34]: 1.53 µM
Compound: Cn1c(-c2csc(C3CCN(CC4=NC5N=CC=CC5N4)CC3)n2)nc2ccccc21 (stereo not given) [BAY-070]
